According to PubChem BioAssay AID1963842 (Molecular Pharmacology Branch, DTP, NCI, 2024):

Tested on: 677734-321-R-J1-PDC complex spheroid viability
Assay: Anticancer human tumor 677734-321-R-J1-PDC patient-derived soft tissue sarcoma cell line growth inhibition [POLQ]
Details: for IC50: curve of first compound; for viability, T/C: stronger effect = lower value; active = viability on the fitted dose curve at most 10% of control; inactive = the rest
Experimental: Multicellular complex tumor spheroid response to Polymerase (POL) inhibitors (novobiocin, ART-558, RP6685) in combination with a variety of drugs and investigational agents in selected tumor cell lines
The POL inhibitors (novobiocin, ART-558, and RP6685) were evaluated both individually and in combination with standard of care and investigational anticancer small molecules within a complex spheroid model of solid tumors. . Complex spheroids include a stromal component modeled by human endothelial cells (HUVEC) and fibroblasts modeled by human mesenchymal stem cells (MSCs). The concentration ranges selected for each drug and investigational agent were based upon clinically achievable concentrations if the clinical Cmax of the agent was known.
Compounds. The drugs and investigational agents: novobiocin (NSC847541), ART-558 (NSC835418), RP-6685 (NSC848927), peposertib (NSC802822), ceralasertib (NSC780249), elimusertib (NSC800525), camonsertib (NSC841442), AZD-1390 (NSC803789), olaparib (NSC753686), talazoparib (NSC767125), rucaparib (NSC756644), sotorasib (NSC818433), MRTX-1133 (NSC836407), SN-38 (NSC673596), topotecan (NSC609699), epotoside (NSC141540), doxorubicin (NSC123127), gemcitabine (NSC613327), 5-fluorouracil (NSC19893), paclitaxel (NSC125973), vemurafenib (NSC761431), MSA-2 (NSC828583), SN-011 (NSC837082), adavosertib (NSC754352), prexasertib (NSC758257), carboplatin (NSC241240) and oxaliplatin (NSC266046), were obtained from the National Cancer Institute (NCI) Developmental Therapeutics Program Chemical Repository (21). The FDA-approved anticancer drug set is available from the Developmental Therapeutics Program at https://dtp.cancer.gov/organization/dscb/obtaining/. […] The stock solutions were prepared in dimethyl sulfoxide (DMSO, Sigma-Aldrich, St. Louis, MO, cat. D2650), except for the platinum compounds which were prepared in saline (Quality Biological, Gaithersburg, MD, cat. 114-055-101), at 800-fold the tested concentration and stored at -70 degrees C prior to their use. All drugs and investigational agents were tested over a range starting from a high concentration at or near the clinical Cmax and decreasing in half-log increments. If the clinical Cmax for an agent had not been determined, the highest concentration tested was 10 microM, except for SN-38, which was tested at a high concentration of 1 microM.
Cell Culture. All cells were maintained in an incubator at 37 degrees C and 5% CO2 with 95% humidity. The PDC lines were cultured according to standard operating procedures established by the NCI PDMR (https://pdmr.cancer.gov). Table 3 of the manuscript, lists the cell lines along with the number of the three cell types plated to form the mct-spheroids and media for tumor cell growth. After thawing, all PDC lines, except 997537-175-T-J1-PDC and 415267-285-R-J2-PDC, were cultured in Matrigel-coated flasks prepared with a working solution of 1X Ham's F-12 nutrient mix, without supplementation (Thermo Fisher Scientific, cat. 11765054), 100 U/mL penicillin-streptomycin (Thermo Fisher Scientific, cat. 15140122), and 2.5% Matrigel (Corning Inc., Corning, NY, cat. 354248) for the first three passages. The two PDC lines 997537-175-T-J1-PDC and 415267-285-R-J2-PDC were cultured on uncoated flasks. The 857933-349-R-J2-PDC line was cultured in 6C/Colon 1B media containing advanced DMEM/F-12 (Thermo Fisher Scientific, cat. 12634028), 10 mM HEPES (Thermo Fisher Scientific, cat. 15630080), 1X GlutaMAX supplement (Thermo Fisher Scientific, cat. 35050061), 0.1 mg/mL primocin (InvivoGen, San Diego, CA, cat. ant-pm-2), 10% defined fetal bovine serum, heat inactivated (HyClone Laboratories Inc., Logan, UT, cat. SH30070.03HI), 50% L-WRN conditioned media (ATCC, cat. CRL-3276), 1.25 mM N-Acetyl-L-cysteine (Sigma-Aldrich, cat. A9165), 10 mM nicotinamide (Sigma-Aldrich, cat. N0636), 1X B-27 supplement (Thermo Fisher Scientific, cat. 17504044), 1X N-2 supplement (Thermo Fisher Scientific, cat. […]

[1] = second compound 0.0316 µM, first compound 0.0316 µM
[2] = second compound 0.0316 µM, first compound 0.1 µM
[3] = second compound 0.0316 µM, first compound 0.316 µM
[4] = second compound 0.0316 µM, first compound 1 µM
[5] = second compound 0.1 µM, first compound 0.0316 µM
[6] = second compound 0.1 µM, first compound 0.1 µM
[7] = second compound 0.1 µM, first compound 0.316 µM
[8] = second compound 0.1 µM, first compound 1 µM
[9] = second compound 0.316 µM, first compound 0.0316 µM
[10] = second compound 0.316 µM, first compound 0.1 µM
[11] = second compound 0.316 µM, first compound 0.316 µM
[12] = second compound 0.316 µM, first compound 1 µM
[13] = second compound 1 µM, first compound 0.0316 µM
[14] = second compound 1 µM, first compound 0.1 µM
[15] = second compound 1 µM, first compound 0.316 µM
[16] = second compound 1 µM, first compound 1 µM
[17] = second compound 3.16 µM, first compound 0.0316 µM
[18] = second compound 3.16 µM, first compound 0.1 µM
[19] = second compound 3.16 µM, first compound 0.316 µM
[20] = second compound 3.16 µM, first compound 1 µM
[21] = second compound 10 µM, first compound 0.0316 µM
[22] = second compound 10 µM, first compound 0.1 µM
[23] = second compound 10 µM, first compound 0.316 µM
[24] = second compound 10 µM, first compound 1 µM
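Note: spheroids exposed to compounds for one week.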
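Throughout, for viability, T/C: 100% = vehicle DMSO treated spheroids.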

CCc1c2c(nc3ccc(O)cc13)-c1cc3c(c(=O)n1C2)COC(=O)[C@]3(O)CC + COC1C(OC(N)=O)C(O)C(Oc2ccc3c(O)c(NC(=O)c4ccc(O)c(CC=C(C)C)c4)c(=O)oc3c2C)OC1(C)C
inactive: viability, T/C (second compound 0.0316 µM, first compound 0.00316 µM) 28.4% | viability, T/C (second compound 0.0316 µM, first compound 0.01 µM) 11.8% | viability, T/C (second compound 0.1 µM, first compound 0.00316 µM) 30% | viability, T/C (second compound 0.1 µM, first compound 0.01 µM) 13.9% | viability, T/C (second compound 0.316 µM, first compound 0.00316 µM) 28.4% | viability, T/C (second compound 0.316 µM, first compound 0.01 µM) 12% | viability, T/C (second compound 1 µM, first compound 0.00316 µM) 30.1% | viability, T/C (second compound 1 µM, first compound 0.01 µM) 13.1% | viability, T/C (second compound 3.16 µM, first compound 0.00316 µM) 24.4% | viability, T/C (second compound 3.16 µM, first compound 0.01 µM) 14.4% | viability, T/C (second compound 10 µM, first compound 0.00316 µM) 32% | viability, T/C (second compound 10 µM, first compound 0.01 µM) 12.5%
< 3.16 nM: IC50 (second compound 0.0316 µM) | IC50 (second compound 0.1 µM) | IC50 (second compound 0.316 µM) | IC50 (second compound 1 µM) | IC50 (second compound 3.16 µM) | IC50 (second compound 10 µM)
active: viability, T/C [1] 4.37% | viability, T/C [2] 3.1% | viability, T/C [3] 2.06% | viability, T/C [4] 1.39% | viability, T/C [5] 5.1% | viability, T/C [6] 2.75% | viability, T/C [7] 2% | viability, T/C [8] 1.2% | viability, T/C [9] 4.66% | viability, T/C [10] 2.52% | viability, T/C [11] 6.96% | viability, T/C [12] 2.86% | viability, T/C [13] 4.67% | viability, T/C [14] 2.88% | viability, T/C [15] 2.98% | viability, T/C [16] 1.68% | viability, T/C [17] 6.11% | viability, T/C [18] 3.15% | viability, T/C [19] 2.62% | viability, T/C [20] 1.16% | viability, T/C [21] 4.86% | viability, T/C [22] 3.88% | viability, T/C [23] 2.05% | viability, T/C [24] 1.75%

Nc1ccn(C2OC(CO)C(O)C2(F)F)c(=O)n1 (centres undefined) + COC1C(OC(N)=O)C(O)C(Oc2ccc3c(O)c(NC(=O)c4ccc(O)c(CC=C(C)C)c4)c(=O)oc3c2C)OC1(C)C
< 31.6 nM: IC50 (second compound 0.0316 µM) | IC50 (second compound 0.1 µM) | IC50 (second compound 0.316 µM) | IC50 (second compound 1 µM) | IC50 (second compound 3.16 µM) | IC50 (second compound 10 µM)
inactive: viability, T/C [1] 32.5% | viability, T/C [2] 15.3% | viability, T/C [3] 13.9% | viability, T/C [4] 11.8% | viability, T/C (second compound 0.0316 µM, first compound 3.16 µM) 10.9% | viability, T/C (second compound 0.0316 µM, first compound 10 µM) 8.72% | viability, T/C [5] 38.9% | viability, T/C [6] 17.6% | viability, T/C [7] 14% | viability, T/C [8] 12.8% | viability, T/C (second compound 0.1 µM, first compound 3.16 µM) 8.3% | viability, T/C (second compound 0.1 µM, first compound 10 µM) 9.61% | viability, T/C [9] 30.9% | viability, T/C [10] 16.8% | viability, T/C [11] 15.9% | viability, T/C [12] 13.1% | viability, T/C (second compound 0.316 µM, first compound 3.16 µM) 12.1% | viability, T/C (second compound 0.316 µM, first compound 10 µM) 8.63% | viability, T/C [13] 30.2% | viability, T/C [14] 17.2% | viability, T/C [15] 11.1% | viability, T/C [16] 14.3% | viability, T/C (second compound 1 µM, first compound 3.16 µM) 11.7% | viability, T/C (second compound 1 µM, first compound 10 µM) 7.96% | viability, T/C [17] 30.1% | viability, T/C [18] 16.6% | viability, T/C [19] 12.9% | viability, T/C [20] 14.5% | viability, T/C (second compound 3.16 µM, first compound 3.16 µM) 11.4% | viability, T/C (second compound 3.16 µM, first compound 10 µM) 8.33% | viability, T/C [21] 39.1% | viability, T/C [22] 12.8% | viability, T/C [23] 12.1% | viability, T/C [24] 13.1% | viability, T/C (second compound 10 µM, first compound 3.16 µM) 11.1% | viability, T/C (second compound 10 µM, first compound 10 µM) 11%
